Counter-ions that a name gives are not always drawn. Like-named read-outs stand apart in the source and are kept apart here.
What was measured:
[1] = molecular target: T1, Poly-ADP-ribose polymerase (PARP enzyme) (Rattus norvegicus, UniProt P27008); experiment: Inhibitory effect of benzimidazole derivatives on PARP enzyme in vitro ([3H]NAD+ incorporation); format: biochemical
T1 construct: Poly-ADP-ribose polymerase was isolated from rat liver; from tissue; host or cells: rat liver
Method: Assay to test inhibitory effects of benzimidazole derivatives on PARP enzyme in vitro.
The potential inhibitory effect of benzimidazole derivatives were tested in this assay system. The PARP activity was determined in 130 μl reaction mixture contained 100 mM Tris-HCl buffer, pH 8.0, 10 mM MgCl2, 10% glycerol, 1.5 mM DTT, 1 mM [Adenine-2,8-^3H] NAD^+ (4.500 cpm/nmol), 10 μg activated DNA and 10 μg histones. The incubation time was 15 minutes, and the reaction was stopped by addition of trichloro-acetic acid (8%). After addition of 0.5 mg albumine, precipitation was allowed to proceed for at least 20 minutes on ice, and the insoluble material was collected on a glass filter washed with 5% perchloric acid. The protein-bound radio-activity was determined by a LS-200 Beckman scintillation counter.

[2] = PARP isolated from rat liver, 1 mM [3H]NAD+, 15 min incubation, read-out: PARP IC50

T1 sequence (P27008 whole entry): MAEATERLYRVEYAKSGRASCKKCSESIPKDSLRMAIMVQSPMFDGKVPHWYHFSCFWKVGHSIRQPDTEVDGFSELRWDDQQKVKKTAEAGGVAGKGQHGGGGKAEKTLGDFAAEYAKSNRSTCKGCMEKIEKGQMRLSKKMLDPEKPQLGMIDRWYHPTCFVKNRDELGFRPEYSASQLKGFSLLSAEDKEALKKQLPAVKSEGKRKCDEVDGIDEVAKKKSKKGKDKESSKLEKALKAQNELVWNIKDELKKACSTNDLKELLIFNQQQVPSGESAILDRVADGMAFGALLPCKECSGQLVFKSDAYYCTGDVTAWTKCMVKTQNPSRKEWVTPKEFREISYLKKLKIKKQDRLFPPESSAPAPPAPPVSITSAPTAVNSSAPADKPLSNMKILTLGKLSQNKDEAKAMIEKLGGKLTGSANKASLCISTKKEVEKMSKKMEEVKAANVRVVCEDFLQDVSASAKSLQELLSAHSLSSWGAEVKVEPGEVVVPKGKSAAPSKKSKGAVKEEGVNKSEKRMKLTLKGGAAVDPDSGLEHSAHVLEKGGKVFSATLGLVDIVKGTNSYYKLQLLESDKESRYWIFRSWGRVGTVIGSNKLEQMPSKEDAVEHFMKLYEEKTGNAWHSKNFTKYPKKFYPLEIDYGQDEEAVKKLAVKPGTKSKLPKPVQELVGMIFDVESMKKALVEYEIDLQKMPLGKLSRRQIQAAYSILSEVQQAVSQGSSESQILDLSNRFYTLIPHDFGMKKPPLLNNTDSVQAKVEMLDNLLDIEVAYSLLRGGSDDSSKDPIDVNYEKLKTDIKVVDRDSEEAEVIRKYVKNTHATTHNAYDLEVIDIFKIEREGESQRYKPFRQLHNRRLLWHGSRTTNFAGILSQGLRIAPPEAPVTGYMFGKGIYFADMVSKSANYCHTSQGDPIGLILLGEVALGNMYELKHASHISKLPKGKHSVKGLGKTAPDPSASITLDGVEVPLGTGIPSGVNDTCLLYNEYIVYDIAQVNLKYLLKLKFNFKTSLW

IC50 [1, 2] [nM] | SMILES | IC50 [1] [nM] | further results
– | CC1(C)C=C(CSc2nc3c(C(N)=O)cccc3[nH]2)C(C)(C)N1 (as salt: HCl) [Compound 27, 2-(2,2,5,5-tetramethyl-2,5-dihydro-1H-pyrrol-3-yl-methyl-sulphanyl)-1H-benzimidazole 4-carboxylic acid amide] | – | melting point: 209 to 211 °C
– | CC1(C)C=C(c2nc3c(C(N)=O)cccc3[nH]2)C(C)(C)N1[O] [Compound 1, 2-(1-oxyl-2,2,5,5-tetramethyl-2,5-dihydro-1H-pyrrol-3-yl)-1H-benzimidazole 4-carboxylic acid amide radical] | 721 | –
345 | CC1(C)C=C(c2nc3c(C(N)=O)cccc3[nH]2)C(C)(C)N1 [Compound 2, 2-(2,2,5,5-tetramethyl-2,5-dihydro-1H-pyrrol-3-yl)-1H-benzimidazole 4-carboxylic acid amide] | – | –
216 | COC(=O)C1C(c2nc3c(C(N)=O)cccc3[nH]2)C(C)(C)NC1(C)C (centres unmarked) [Compound 4, 4-(4-carbamoyl-1H-benzimidazol-2-yl)-2,2,5,5-tetramethyl-pyrrolidine-3-carboxylic acid methyl ester] | – | –
– | CC1(C)C(Br)=C(c2nc3c(C(N)=O)cccc3[nH]2)C(C)(C)N1[O] [Compound 5, 2-(4-bromo-1-oxyl-2,2,5,5-tetramethyl-2,5-dihydro-1H-pyrrol-3-yl)-1H-benzimidazole 4-carboxylic acid amide radical] | 201 | –
137 | CC1(C)NC(C)(C)C(c2nc3c(C(N)=O)cccc3[nH]2)=C1Br [Compound 6, 2-(4-bromo-2,2,5,5-tetramethyl-2,5-dihydro-1H-pyrrol-3-yl)-1H-benzimidazole 4-carboxylic acid amide] | – | –
– | CC1(C)C(c2ccccc2)=C(c2nc3c(C(N)=O)cccc3[nH]2)C(C)(C)N1[O] [Compound 7, 2-(1-oxyl-4-phenyl-2,2,5,5-tetramethyl-2,5-dihydro-1H-pyrrol-3-yl)-1H-benzimidazole 4-carboxylic acid amide radical] | 1500 | –
310 | CC1(C)NC(C)(C)C(c2nc3c(C(N)=O)cccc3[nH]2)=C1c1ccccc1 [Compound 8, 2-(4-phenyl-2,2,5,5-tetramethyl-2,5-dihydro-1H-pyrrol-3-yl)-1H-benzimidazole 4-carboxylic acid amide] | – | –
– | CC1(C)C(c2cccc(C(F)(F)F)c2)=C(c2nc3c(C(N)=O)cccc3[nH]2)C(C)(C)N1[O] [Compound 9, 2-[1-oxyl-2,2,5,5-tetramethyl-4-(3-trifluoromethyl-phenyl)-2,5-dihydro-1H-pyrrol-3-yl]-1H-benzimidazole 4-carboxylic acid amide radical] | 149 | –
– | CC1(C)NC(C)(C)C(c2nc3c(C(N)=O)cccc3[nH]2)=C1c1cccc(C(F)(F)F)c1 [Compound 10, 2-[2,2,5,5-tetramethyl-4-(3-trifluoromethyl-phenyl)-2,5-dihydro-1H-pyrrol-3-yl]-1H-benzimidazole 4-carboxylic acid amide] | 133 | –
– | CC1(C)C=C(c2ccc(-c3nc4c(C(N)=O)cccc4[nH]3)cc2)C(C)(C)N1[O] [Compound 11, 2-[4-(1-oxyl-2,2,5,5-tetramethyl-2,5-dihydro-1H-pyrrol-3-yl)-phenyl]-1H-benzimidazole 4-carboxylic acid amide radical] | 78 | –
98 | CC1(C)C=C(c2ccc(-c3nc4c(C(N)=O)cccc4[nH]3)cc2)C(C)(C)N1 [Compound 12, 2-[4-(2,2,5,5-tetramethyl-2,5-dihydro-1H-pyrrol-3-yl)-phenyl]-1H-benzimidazole 4-carboxylic acid amide] | – | –
– | CN1C(C)(C)C=C(c2nc3c(C(N)=O)cccc3[nH]2)C1(C)C [Compound 13, 2-(1,2,2,5,5-pentamethyl-2,5-dihydro-1H-pyrrol-3-yl)-1H-benzimidazole 4-carboxylic acid amide] | 42 | –
49 | CC(=O)N1C(C)(C)C=C(c2nc3c(C(N)=O)cccc3[nH]2)C1(C)C [Compound 14, 2-(1-acetyl-2,2,5,5-tetramethyl-2,5-dihydro-1H-pyrrol-3-yl)-1H-benzimidazole 4-carboxylic acid amide] | – | –
61 | CON1C(C)(C)C=C(c2nc3c(C(N)=O)cccc3[nH]2)C1(C)C [Compound 15, 2-(1-methoxy-2,2,5,5-tetramethyl-2,5-dihydro-1H-pyrrol-3-yl)-1H-benzimidazole 4-carboxylic acid amide] | – | –
– | CC1(C)C(c2nc3c(C(N)=O)cccc3[nH]2)=C(c2cccc3c2oc2ccccc23)C(C)(C)N1[O] [Compound 16] | 1800 | –
8200 | CC1(C)NC(C)(C)C(c2cccc3c2oc2ccccc23)=C1c1nc2c(C(N)=O)cccc2[nH]1 [Compound 17] | – | –
– | CC1(C)C=C(c2nc3c(C(N)=O)cccc3[nH]2)CC(C)(C)N1 [Compound 19, 2-(2,2,6,6-tetramethyl-1,2,3,6-tetrahydro-pyridin-4-yl)-1H-benzimidazole 4-carboxylic acid amide] | 14 | –
– | CC1(C)C=C(COc2ccc(-c3nc4c(C(N)=O)cccc4[nH]3)cc2)C(C)(C)N1[O] [Compound 20, 2-[4-(1-oxyl-2,2,5,5-tetramethyl-2,5-dihydro-1H-pyrrol-3-yl-methoxy)-phenyl]-1H-benzimidazole 4-carboxylic acid amide radical] | 564 | –
572 | CC1(C)C=C(COc2ccc(-c3nc4c(C(N)=O)cccc4[nH]3)cc2)C(C)(C)N1 [Compound 21, 2-[4-(2,2,5,5-tetramethyl-2,5-dihydro-1H-pyrrol-3-yl-methoxy)-phenyl]-1H-benzimidazole 4-carboxylic acid amide] | – | –
– | COc1cc(-c2nc3c(C(N)=O)cccc3[nH]2)ccc1OCC1=CC(C)(C)N([O])C1(C)C [Compound 22, 2-[3-methoxy-4-(1-oxyl-2,2,5,5-tetramethyl-2,5-dihydro-1H-pyrrol-3-yl-methoxy)-phenyl]-1H-benzimidazole 4-carboxylic acid amide radical] | 472 | –
– | COc1cc(-c2nc3c(C(N)=O)cccc3[nH]2)ccc1OCC1=CC(C)(C)NC1(C)C [Compound 23, 2-[3-methoxy-4-(2,2,5,5-tetramethyl-2,5-dihydro-1H-pyrrol-3-yl-methoxy)-phenyl]-1H-benzimidazole 4-carboxylic acid amide] | 432 | –
– | CC1(C)c2cc(-c3nc4c(C(N)=O)cccc4[nH]3)sc2C(C)(C)N1[O] [Compound 24, 2-(5-oxyl-4,4,6,6-tetramethyl-4,6-dihydro-5H-thieno[2,3-c]pyrrol-2-yl)-1H-benzimidazole 4-carboxylic acid amide radical] | 3400 | –
– | CC1(C)NC(C)(C)c2sc(-c3nc4c(C(N)=O)cccc4[nH]3)cc21 [Compound 25, 2-(4,4,6,6-tetramethyl-4,6-dihydro-5H-thieno[2,3-c]pyrrol-2-yl)-1H-benzimidazole 4-carboxylic acid amide] | 354 | –
– | CC1(C)C=C(CSc2nc3c(C(N)=O)cccc3[nH]2)CC(C)(C)N1 [Compound 29, 2-(2,2,6,6-tetramethyl-1,2,3,6-tetrahydro-pyridin-4-yl-methylsulphanyl)-1H-benzimidazole 4-carboxylic acid amide] | – | melting point: 245 to 246 °C

SMILES | IC50 [1, 2] [nM] | IC50 [1] [nM] | further results
CC1(C)C=C(c2nc3c(C(N)=O)cccc3[nH]2)CC(C)(C)N1O [Compound 18, (1-hydroxy-2,2,6,6-tetramethyl-1,2,3,6-tetrahydro-pyridin-4-yl)-1H-benzimidazole 4-carboxylic acid amide] | 26 | – | –

Source: patent US20070072912A1, “Alicyclic-amine-substituted 4-carboxamido-benzimidazoles as parp-inhibitors and antioxidants” (Cedars-Sinai Medical Center, priority 2003, published 2007)
